# Measured values published in EP0746567B1, “NOVEL OPIOID PEPTIDES FOR THE TREATMENT OF PAIN AND USE THEREOF” (AstraZeneca AB, priority 1994, dated 2002).
# Non-standard residues stand in square brackets, D forms with d. Residues, ends and D or L forms follow the SMILES beside them.
# Test system: hot plate response
# Experiment: Hot plate test (central analgesia)
# Type: in vivo
# Conditions: mouse hot plate test, even at doses of 100mg/kg
# Description: It was thought that non-polar peptides pass more easily into the central nervous system than polar peptides by traversing the blood-brain barrier. […] This test is standard and known to persons skilled in the art. The test detects chemicals that exert a centrally mediated analgesic response.
# The term "ED50" as shown in table 1 for the PBQ writhing assays is defined as the dose of drug which induces a 50% reduction in the number of writhes observed compared to the control.
# PBQ (phenylbenzoquinone) induced writhing in mice is an assessment of both central and peripheral analgesia. For experimental protocol see Sigmund et al., Proc. Soc. Exp. Biol. Med., 95, p. 729 (1957). Central analgesia was determined by the inhibition of a hot plate response in mice. For experimental protocol see G. Woolfe and A. Macdonald, J. Pharmacol. Exp. Ther., 80, p.300 (1944). Assays measuring opioid receptor binding affinities for µ and δ receptors as well as GPI and MVD assays were determined through experimental protocol set out in Schiller et al., Biophys. Res. Commun., 85, p.1322 (1975). […]
# The mice were individually evaluated for reaction time on the hot plate. […]
# For each time reading, the average reaction time of the control group was multiplied by 1.5. […] The number of analgesic mice in a group determined the analgesic percentage of the compound for this reading.
structure (smiles),measurement,value
"C[C@@H](NC(=O)[C@@H](N)Cc1ccc(O)cc1)C(=O)N[C@@H](Cc1ccccc1)C(=O)N[C@@H](Cc1ccccc1)C(N)=O [TAPP, H-Tyr-D-Ala-Phe-Phe-NH2] (H-Y[dA]FF-NH2)",analgesic effect,lack of analgesic effect
